Measurements as given in patent publication EP4563146A1 (IRBM S.P.A., priority 2023, dated 2025).
pEC50, pIC50: −log10 of the molar value. Read-outs that look alike come from different tables or passages of the source.

What was measured:
[1] = target: T1, West Nile Virus (WNV) NS2B-NS3 protease (West Nile virus, UniProt Q9Q6P4); assay: WNV protease inhibition assay; assay type: biochemical; details: Table 4; letter codes for IC50
T1 construct: NS2B1423-1470); purchased R&D 2907-SE-020
From the text: WNV protease inhibition assay

[2] = test system: ZIKV replicon; assay: ZIKV replication inhibition assay (NanoLuc replicon in Vero cells); details: 72 h
[3] = Zika virus, Vero, read-out: ZIKA Cell_Nanoluc
[4] = Zika virus, Vero, read-out: ZIKA Cell_Nanoluc, Vero cells with stable ZIKV replicon, 72 h, Nano-Glo readout

T1 sequence (Q9Q6P4 1423-1470): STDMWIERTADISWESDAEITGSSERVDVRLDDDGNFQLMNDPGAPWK
T1 sequence (Q9Q6P4 1506-1689): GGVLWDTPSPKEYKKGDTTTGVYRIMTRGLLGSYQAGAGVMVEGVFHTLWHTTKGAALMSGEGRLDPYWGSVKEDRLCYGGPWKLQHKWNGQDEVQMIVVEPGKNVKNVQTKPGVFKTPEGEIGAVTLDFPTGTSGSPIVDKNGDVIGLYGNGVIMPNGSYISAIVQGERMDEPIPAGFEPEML

Question: With `Cc1noc(C)c1CC(=O)Nc1cc(NC(=O)[N-]c2c[n+]([C@H]3CC[C@H](CN(C)C)CC3)no2)cc(C(F)(F)F)c1` [Example 197, (3-((1R,4R)-4-((Dimethylamino)methyl)-cyclohexyl)-1,2,3-oxadiazol-3-ium-5-yl)((3-(2-(3,5-dimethylisoxazol-4-yl)acetamido)-5-(trifluoromethyl)phenyl)carbamoyl)amide] as the compound, how does the pIC50 [1] read?
Answer: 4.70 to 6.00

Question: And the pEC50 [2, 3]?
Answer: > 7.00

Question: With `COC(=O)[C@@H]1CCC[C@@H]([n+]2cc([N-]C(=O)Nc3cc(NC(=O)Cc4ccccc4C)cc(C(F)(F)F)c3)on2)C1` [Example 224, (3-((1R,3R)-3-(Methoxycarbonyl)cyclohexyl)-1,2,3-oxadiazol-3-ium-5-yl)((3-(2-(o-tolyl)-acetamido)-5-(trifluoromethyl)phenyl)-carbamoyl)amide] as the compound, how does the pIC50 [1] read?
Answer: > 7.00

Question: And the pEC50 [2, 4]?
Answer: > 7.00

Question: What does the source list for `Cc1ccccc1CC(=O)Nc1cc(NC(=O)[N-]c2c[n+]([C@H]3CC[C@H](CO)CC3)no2)cc(C(F)(F)F)c1` [Example 228, (3-((1R,4R)-4-(Hydroxymethyl)cyclohexyl)-1,2,3-oxadiazol-3-ium-5-yl)((3-(2-(o-tolyl)acetamido)-5-(trifluoromethyl)phenyl)carbamoyl)amide]?
Answer: pIC50 [1]: 6.00 to 7.00; pEC50 [2, 3]: 6.00 to 7.00

Question: How did the pIC50 [1] turn out when `Cc1ccccc1CC(=O)Nc1cc(NC(=O)[N-]c2c[n+](C[C@H]3CCCC[C@H]3O)no2)cc(C(F)(F)F)c1` [Example 217, (3-(((1R,2R)-2Hydroxycyclohexyl)methyl)-1,2,3-oxadiazol-3-ium-5-yl)((3-(2-(o-tolyl)acetamido)-5-(trifluoromethyl)phenyl)-carbamoyl)amide] was run?
Answer: > 7.00

Question: And the pEC50 [2, 4]?
Answer: > 7.00

Question: What does the source list for `Cc1ncnc(C)c1-c1ccc(C[n+]2cc([N-]C(=O)Nc3cc(C(F)(F)F)c4ncccc4c3)on2)cc1` [Example 272, (3-(4-(4,6-Dimethylpyrimidin-5-yl)benzyl)-1,2,3-oxadiazol-3-ium-5-yl)((8-(trifluoromethyl)-quinolin-6-yl)carbamoyl)amide]?
Answer: pIC50 [1]: 4.70 to 6.00; pEC50 [2, 4]: 6.00 to 7.00

Question: What does the source list for `CN(C)C[C@H]1CC[C@H]([n+]2cc([N-]C(=O)Nc3cc(NC(=O)Cc4ccccc4C(F)(F)F)cc(C(F)(F)F)c3)on2)CC1` [Example 166, (3-((1R,4R)-4-((Dimethylamino)methyl)-cyclohexyl)-1,2,3-oxadiazol-3-ium-5-yl)((3-(trifluoromethyl)-5-(2-(2-(trifluoromethyl)-phenyl)acetamido)phenyl)carbamoyl)amide]?
Answer: pIC50 [1]: 6.00 to 7.00; pEC50 [2, 3]: 4.70 to 6.00

Question: With `CN(C)C[C@H]1CC[C@H]([n+]2cc([N-]C(=O)Nc3cc(NC(=O)[C@H](F)c4ccccc4F)cc(C(F)(F)F)c3)on2)CC1` (single isomer, unassigned) [Example 271] as the compound, how does the pIC50 [1] read?
Answer: > 7.00

Question: And the pEC50 [2, 3]?
Answer: 6.00 to 7.00

Question: How did the pIC50 [1] turn out when `Cc1ccccc1CC(=O)Nc1cc(NC(=O)[N-]c2c[n+]([C@H]3CC[C@H](C(=O)N(C)C)CC3)no2)cc(C(F)(F)F)c1` [Example 248, (3-((1R,4R)-4-(Dimethylcarbamoyl)-cyclohexyl)-1,2,3-oxadiazol-3-ium-5-yl)((3-(2-(o-tolyl)acetamido)-5-(trifluoromethyl)phenyl)-carbamoyl)amide] was run?
Answer: > 7.00

Question: And the pEC50 [2, 3]?
Answer: 4.70 to 6.00

Question: What does the source list for `Cc1ncnc(C)c1-c1ccc(C[n+]2cc([N-]C(=O)Nc3cccc(C(F)(F)F)c3)on2)nn1` [Example 184, (3-((6-(4,6-Dimethylpyrimidin-5-yl)pyridazin-3-yl)methyl)-1,2,3-oxadiazol-3-ium-5-yl)((3-(trifluoromethyl)phenyl)carbamoyl)amide]?
Answer: pIC50 [1]: 6.00 to 7.00; pEC50 [2, 4]: 6.00 to 7.00

Question: With `CC(C(=O)N(C)c1cc(NC(=O)[N-]c2c[n+]([C@H]3CC[C@H](CN(C)C)CC3)no2)cc(C(F)(F)F)c1)c1ccccc1` (stereo partly drawn) [Example 167, (3-((1R,4R)-4-((Dimethylamino)methyl)-cyclohexyl)-1,2,3-oxadiazol-3-ium-5-yl)((3-(N-methyl-2-phenylpropanamido)-5-(trifluoromethyl)phenyl)carbamoyl)amide] as the compound, how does the pIC50 [1] read?
Answer: 6.00 to 7.00

Question: What about the pEC50 [2, 3] of the same compound?
Answer: 4.70 to 6.00

Question: `Cc1ncncc1-c1ccc(C[n+]2cc([N-]C(=O)Nc3ccnc(C(F)(F)F)c3)on2)cc1` [Example 225, (3-(4-(4-Methylpyrimidin-5-yl)benzyl)-1,2,3-oxadiazol-3-ium-5-yl)((2-(trifluoromethyl)pyridin-4-yl)carbamoyl)amide] was tested. Which pIC50 [1] did it give?
Answer: 6.00 to 7.00

Question: What about the pEC50 [2, 4] of the same compound?
Answer: 6.00 to 7.00

Question: Which results are given for `CN(C)C[C@H]1CC[C@H]([n+]2cc([N-]C(=O)Nc3cc(NC(=O)Cc4cccc(Cl)c4)cc(C(F)(F)F)c3)on2)CC1` [Example 176, ((3-(2-(3-Chlorophenyl)acetamido)-5-(trifluoromethyl)phenyl)carbamoyl)(3-((1R,4R)-4-((dimethylamino)methyl)cyclohexyl)-1,2,3-oxadiazol-3-ium-5-yl)amide]?
Answer: pIC50 [1]: 6.00 to 7.00; pEC50 [2, 3]: 4.70 to 6.00

Question: How did the pIC50 [1] turn out when `Cc1ccccc1CC(=O)Nc1cc(NC(=O)[N-]c2c[n+]([C@H]3CC[C@H](C(C)(C)O)CC3)no2)cc(C(F)(F)F)c1` [Example 206, (3-((1R,4R)-4-(2-Hydroxypropan-2-yl)cyclohexyl)-1,2,3-oxadiazol-3-ium-5-yl)((3-(2-(o-tolyl)acetamido)-5-(trifluoromethyl)phenyl)-carbamoyl)amide] was run?
Answer: > 7.00

Question: What about the pEC50 [2, 3] of the same compound?
Answer: 6.00 to 7.00

Question: How did the pIC50 [1] turn out when `Cc1nsc(C)c1-c1ccc(C[n+]2cc([N-]C(=O)Nc3ccnc(C(F)(F)F)c3)on2)cc1` [Example 211, (3-(4-(3,5-Dimethylisothiazol-4-yl)benzyl)-1,2,3-oxadiazol-3-ium-5-yl)((2-(trifluoromethyl)-pyridin-4-yl)carbamoyl)amide] was run?
Answer: 6.00 to 7.00

Question: What about the pEC50 [2, 4] of the same compound?
Answer: 4.70 to 6.00

Question: Which results are given for `Cc1nnccc1-c1ccc(C[n+]2cc([N-]C(=O)Nc3ccnc(C(F)(F)F)c3)on2)cc1` [Example 188, (3-(4-(3-Methylpyridazin-4-yl)benzyl)-1,2,3-oxadiazol-3-ium-5-yl)((2-(trifluoromethyl)-pyridin-4-yl)carbamoyl)amide]?
Answer: pIC50 [1]: > 7.00; pEC50 [2, 4]: > 7.00

Question: With `Cc1ccccc1CC(=O)Nc1cc(NC(=O)[N-]c2c[n+]([C@@H]3CCCC(CO)C3)no2)cc(C(F)(F)F)c1` (stereo partly drawn) [Example 230, (3-((1R)-3-(Hydroxymethyl)cyclohexyl)-1,2,3-oxadiazol-3-ium-5-yl)((3-(2-(o-tolyl)acetamido)-5-(trifluoromethyl)phenyl)carbamoyl)amide] as the compound, how does the pIC50 [1] read?
Answer: > 7.00

Question: What about the pEC50 [2, 4] of the same compound?
Answer: 4.70 to 6.00

Question: With `CN(C)C[C@H]1CC[C@H]([n+]2cc([N-]C(=O)Nc3cc(NC(=O)[C@@H](F)c4ccccc4F)cc(C(F)(F)F)c3)on2)CC1` (single isomer, unassigned) [Example 243] as the compound, how does the pIC50 [1] read?
Answer: > 7.00

Question: And the pEC50 [2, 3]?
Answer: 6.00 to 7.00

Question: `Cc1nc(N)ncc1-c1ccc(C[n+]2cc([N-]C(=O)Nc3ccnc(C(F)(F)F)c3)on2)cc1` [Example 260, (3-(4-(2-Amino-4-methylpyrimidin-5-yl)benzyl)-1,2,3-oxadiazol-3-ium-5-yl)((2-(trifluoromethyl)pyridin-4-yl)carbamoyl)amide] was tested. Which pIC50 [1] did it give?
Answer: > 7.00

Question: What about the pEC50 [2, 4] of the same compound?
Answer: > 7.00

Question: `Cc1ccccc1CC(=O)Nc1cc(NC(=O)[N-]c2c[n+]([C@H]3CCC[C@@H](CN(C)C)C3)no2)cc(C(F)(F)F)c1` [Example 213, (3-((1S,3R)-3-((Dimethylamino)methyl)-cyclohexyl)-1,2,3-oxadiazol-3-ium-5-yl)((3-(2-(o-tolyl)acetamido)-5-(trifluoromethyl)phenyl)carbamoyl)amide] was tested. Which pIC50 [1] did it give?
Answer: 6.00 to 7.00

Question: What about the pEC50 [2, 4] of the same compound?
Answer: 4.70 to 6.00

Question: Which results are given for `Cc1ccccc1CC(=O)Nc1cc(NC(=O)[N-]c2c[n+](C[C@@H]3CCCC[C@H]3O)no2)cc(C(F)(F)F)c1` [Example 218, (3-(((1S,2R)-2-Hydroxycyclohexyl)methyl)-1,2,3-oxadiazol-3-ium-5-yl)((3-(2-(o-tolyl)acetamido)-5-(trifluoromethyl)phenyl)-carbamoyl)amide]?
Answer: pIC50 [1]: 6.00 to 7.00; pEC50 [2, 4]: 6.00 to 7.00

Question: Which results are given for `C[C@H](C(=O)Nc1cc(NC(=O)[N-]c2c[n+]([C@H]3CC[C@H](CN(C)C)CC3)no2)cc(C(F)(F)F)c1)c1ccccc1` [Example 170, (3-((1R,4S)-4-((Dimethylamino)methyl)-cyclohexyl)-1,2,3-oxadiazol-3-ium-5-yl)((3-((S)-2-phenylpropanamido)-5-(trifluoromethyl)-phenyl)carbamoyl)amide]?
Answer: pIC50 [1]: > 7.00; pEC50 [2, 3]: 6.00 to 7.00

Question: Which results are given for `O=C([N-]c1c[n+]([C@H]2CCC[C@@H](c3cncnc3)C2)no1)Nc1ccnc(C(F)(F)F)c1` [Example 220, (3-((1S,3R)-3-(Pyrimidin-5-yl)cyclohexyl)-1,2,3-oxadiazol-3-ium-5-yl)((2-(trifluoromethyl)-pyridin-4-yl)carbamoyl)amide]?
Answer: pIC50 [1]: 6.00 to 7.00; pEC50 [2, 4]: 6.00 to 7.00

Question: With `COc1ccc(NC(=O)[N-]c2c[n+](Cc3ccc(-c4c(C)ncnc4C)cc3)no2)cc1C(F)(F)F` [Example 249, (3-(4-(4,6-Dimethylpyrimidin-5-yl)benzyl)-1,2,3-oxadiazol-3-ium-5-yl)((4-methoxy-3-(trifluoromethyl)phenyl)carbamoyl)amide] as the compound, how does the pIC50 [1] read?
Answer: 6.00 to 7.00

Question: What about the pEC50 [2, 4] of the same compound?
Answer: > 7.00

Question: How did the pIC50 [1] turn out when `CC(C(=O)Nc1cc(NC(=O)[N-]c2c[n+]([C@H]3CC[C@H](CN(C)C)CC3)no2)cc(C(F)(F)F)c1)c1ccccc1` (stereo partly drawn) [Example 164, (3-((1R,4R)-4-((Dimethylamino)methyl)-cyclohexyl)-1,2,3-oxadiazol-3-ium-5-yl)((3-(2-phenylpropanamido)-5-(trifluoromethyl)phenyl)-carbamoyl)amide] was run?
Answer: > 7.00

Question: What about the pEC50 [2, 3] of the same compound?
Answer: 6.00 to 7.00

Question: Which results are given for `Cc1ccccc1CC(=O)Nc1cc(NC(=O)[N-]c2c[n+](C3CCCC(CO)C3)no2)cc(C(F)(F)F)c1` (stereo not shown) [Example 265, (3-(3-(Hydroxymethyl)cyclohexyl)-1,2,3-oxadiazol-3-ium-5-yl)((3-(2-(o-tolyl)acetamido)-5-(trifluoromethyl)phenyl)carbamoyl)amide]?
Answer: pIC50 [1]: 6.00 to 7.00; pEC50 [2, 4]: 4.70 to 6.00

Question: “((3-(2-(3-(Carboxymethyl)phenyl)acetamido)-5-(trifluoromethyl)phenyl)carbamoyl)(3-((1R,4R)-4-((dimethylamino)methyl)cyclohexyl)-1,2,3-oxadiazol-3-ium-5-yl)amide [Example 155]” was tested. Which pIC50 [1] did it give?
Answer: 6.00 to 7.00

Question: And the pEC50 ([2]; read-out: ZIKA Cell_Nanoluc, Vero cells with stable ZIKV replicon, Nano-Glo readout)?
Answer: 4.70 to 6.00
